Data: patent publication US7749982B2, “Complex containing mequitazine, a cyclodextrin and an interaction agent” (Pierre Fabre Medicament, priority 2004, dated 2010)

Legend:
[1] = Mequitazine solubilization test (2 g/l in water, HPLC assay); format: physicochemical
Description: In the sense of the present invention, “rate of solubilization” means the percentage of solubilized mequitazine after stirring a mixture of water and mequitazine for 15 minutes at 37° C. A mixture of 2 g/l of mequitazine in water is usually used to measure this rate. This solubilization can be measured by a solubilization test as indicated below.
The mequitazine content in the dissolution solutions is measured by HPLC:
In a 100 ml Erlenmeyer flask, place a test sample equivalent to 100 mg of mequitazine. Add 50 ml of ultrapure water. […] Place under magnetic stirring at 400 rpm in a water bath at 37° C.±2° C. Remove a 2 ml sample under magnetic stirring at 15 minutes. Filter the sample on a 0.45 μm Gelman GHP Acrodisc polypropylene filter. The solution must be limpid. Dilute the sample to 1/200 in a phase: water/acetonitrile (50/50).
Deduce concentration X in μg/ml by following the regression line of the controls.
Calculate the concentration in μg/ml of solubilized mequitazine by multiplying by the inverse of the dilution made (i.e., 200).
The rate of solubility of mequitazine is calculated by dividing the concentration of solubilized mequitazine by the total concentration of mequitazine in the starting solution. […]
The solubility and the rates of solubilization of mequitazine only or mequitazine in physical mixtures are measured as indicated above in the “mequitazine solubilization test”. […]

[2] = Bioavailability of mequitazine administered by oral route; conditions: in vivo
Text: As for many pharmaceutically active ingredients, the absorption of mequitazine administered by oral route takes place in the intestine. […] A very small portion of the mequitazine ingested is in solubilized form, and thus it is absorbed with difficulty through the intestinal barrier.

c1ccc2c(c1)Sc1ccccc1N2CC1CN2CCC1CC2 (stereo not drawn) [mequitazine]
solubility (in words) ([1]; acid pH range from 2 to 6): high solubility | solubility (in words) ([1]; pH 9): very low solubility | bioavailability [2]: ~0.3%
